According to paper PMC12203311, “Design, synthesis, in silico and in vitro evaluation of pyrrole–indole hybrids as dual tubulin and aromatase inhibitors with potent anticancer activities” (RSC Advances, 2025):

Columns and labels:
HS 578T = experiment: NCI60 five-dose screen; format: cell-based; conditions: Homo sapiens, breast cancer; for CC50: read-out: LC50 (the source's name)
MDA-MB-435 = experiment: NCI60 five-dose screen; format: cell-based, human; conditions: Homo sapiens; for CC50: MDA-MB-435, MDA-MB-435, melanoma, read-out: LC50 (the source's name); for GI50: MDA-MB-435, melanoma
HCT-116 = experiment: NCI60 five-dose screen; format: cell-based; conditions: Homo sapiens, HCT-116, colon cancer; for CC50: read-out: LC50 (the source's name)
IGROV1 = experiment: NCI60 five-dose screen; format: cell-based; conditions: Homo sapiens, IGROV-1; IGROV1, ovarian cancer
MDA-MB-468 = experiment: NCI60 five-dose screen; format: cell-based; conditions: Homo sapiens, MDA-MB-468, breast cancer; for CC50: read-out: LC50 (the source's name)
LOX IMVI = experiment: NCI60 five-dose screen; format: cell-based; conditions: Homo sapiens, melanoma; for CC50: read-out: LC50 (the source's name)
M14 = experiment: NCI60 five-dose screen; format: cell-based; conditions: Homo sapiens, M14, melanoma; for CC50: read-out: LC50 (the source's name)
NCI-H460 = experiment: NCI60 five-dose screen; format: cell-based; conditions: Homo sapiens, NCI-H460, NSC lung cancer; for CC50: read-out: LC50 (the source's name)
HT29 = experiment: NCI60 five-dose screen; format: cell-based; conditions: Homo sapiens, HT-29, HT29, colon cancer; for CC50: read-out: LC50 (the source's name)
MOLT-4 = experiment: NCI60 five-dose screen; format: cell-based; conditions: Homo sapiens, MOLT-4, leukemia; for CC50: read-out: LC50 (the source's name)
UO-31 = experiment: NCI60 five-dose screen; format: cell-based; conditions: Homo sapiens, UO-31, renal cancer; for CC50: read-out: LC50 (the source's name)
SF-295 = experiment: NCI60 five-dose screen; format: cell-based; conditions: Homo sapiens, SF-295, CNS cancer; for CC50: read-out: LC50 (the source's name)
OVCAR-5 = experiment: NCI60 five-dose screen; format: cell-based; conditions: Homo sapiens, OVCAR-5, ovarian cancer; for CC50: read-out: LC50 (the source's name)
HCT-15 = experiment: NCI60 five-dose screen; format: cell-based; conditions: Homo sapiens, HCT-15, colon cancer; for CC50: read-out: LC50 (the source's name)
NCI-H23 = experiment: NCI60 five-dose screen; format: cell-based; conditions: Homo sapiens, NCI-H23, NSC lung cancer; for CC50: read-out: LC50 (the source's name)
HOP-62 = experiment: NCI60 five-dose screen; format: cell-based; conditions: Homo sapiens, HOP-62, NSC lung cancer; for CC50: read-out: LC50 (the source's name)
PC-3 = experiment: NCI60 five-dose screen; format: cell-based; conditions: Homo sapiens, PC-3, prostate cancer; for CC50: read-out: LC50 (the source's name)
SK-MEL-2 = experiment: NCI60 five-dose screen; format: cell-based; conditions: Homo sapiens, SK-MEL-2, melanoma; for CC50: read-out: LC50 (the source's name)
[1] = tested on: T47D breast cancer cell line; experiment: Cytotoxicity MTT assay, T47D; format: cell-based, human
Outline: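 Cells in DMEM with 10% FBS and penicillin/streptomycin (37 °C, 5% CO2) were seeded at 10 000 per well, grown overnight, then exposed to compounds for 48 hours. MTT (0.5 mg mL^−1) was added for 3 hours, formazan dissolved in DMSO, and absorbance read at 570 nm; viability was expressed against DMSO vehicle.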

OVCAR-8 = experiment: NCI60 five-dose screen; format: cell-based; conditions: Homo sapiens, OVCAR-8, ovarian cancer; for CC50: read-out: LC50 (the source's name)
NCI-H226 = experiment: NCI60 five-dose screen; format: cell-based; conditions: Homo sapiens, NCI-H226, NSC lung cancer; for CC50: read-out: LC50 (the source's name)
RPMI-8226 = experiment: NCI60 five-dose screen; format: cell-based; conditions: Homo sapiens, RPMI-8226, leukemia; for CC50: read-out: LC50 (the source's name)
UACC-257 = experiment: NCI60 five-dose screen; format: cell-based; conditions: Homo sapiens, UACC-257, melanoma; for CC50: read-out: LC50 (the source's name)
HOP-92 = experiment: NCI60 five-dose screen; format: cell-based; conditions: Homo sapiens, HOP-92, NSC lung cancer; for CC50: read-out: LC50 (the source's name)
HCC-2998 = experiment: NCI60 five-dose screen; format: cell-based; conditions: Homo sapiens, HCC-2998, colon cancer; for CC50: read-out: LC50 (the source's name)
OVCAR-3 = experiment: NCI60 five-dose screen; format: cell-based; conditions: Homo sapiens, OVCAR-3, ovarian cancer; for CC50: read-out: LC50 (the source's name)
HL-60 (TB) = experiment: NCI60 five-dose screen; format: cell-based; conditions: Homo sapiens, leukemia; for CC50: read-out: LC50 (the source's name)
MDA-MB-231/ATCC = experiment: NCI60 five-dose screen; format: cell-based; conditions: Homo sapiens, breast cancer; for CC50: read-out: LC50 (the source's name)
CAKI-1 = experiment: NCI60 five-dose screen; format: cell-based; conditions: Homo sapiens, CAKI-1, renal cancer; for CC50: read-out: LC50 (the source's name)
DU-145 = experiment: NCI60 five-dose screen; format: cell-based; conditions: Homo sapiens, DU-145, prostate cancer; for CC50: read-out: LC50 (the source's name)
BT-549 = experiment: NCI60 five-dose screen; format: cell-based; conditions: Homo sapiens, BT-549, breast cancer; for CC50: read-out: LC50 (the source's name)

O=C(N/N=C/c1cc[nH]c1)c1[nH]c2ccc(Br)cc2c1-c1ccccc1 [Derivative 3b, (E)-N′-((1H-Pyrrol-3-yl)methylene)-5-bromo-3-phenyl-1H-indole-2-carbohydrazide]
GI50 (HS 578T): 1310 nM
CC50 (HS 578T): > 100 µM
CC50 (MDA-MB-435): 15.8 µM
GI50 (MDA-MB-435): 463 nM
GI50 (HCT-116): 991 nM
CC50 (HCT-116): > 100 µM
GI50 (IGROV1): 1270 nM
GI50 (MDA-MB-468): 593 nM
CC50 (MDA-MB-468): 24.2 µM
GI50 (LOX IMVI): 916 nM
CC50 (LOX IMVI): 38.7 µM
GI50 (M14): 1.58 µM
CC50 (M14): 45.8 µM
GI50 (NCI-H460): 657 nM
CC50 (NCI-H460): 46 µM
GI50 (HT29): 680 nM
CC50 (HT29): 34.5 µM
GI50 (MOLT-4): 1520 nM
CC50 (MOLT-4): > 100 µM
GI50 (UO-31): 1660 nM
CC50 (UO-31): 41 µM
GI50 (SF-295): 1940 nM
CC50 (SF-295): 33.8 µM
GI50 (OVCAR-5): 1740 nM
CC50 (OVCAR-5): 38.5 µM
GI50 (HCT-15): 918 nM
CC50 (HCT-15): 34 µM
GI50 (NCI-H23): 1870 nM
CC50 (NCI-H23): 33.9 µM
GI50 (HOP-62): 2010 nM
CC50 (HOP-62): 61.4 µM
GI50 (PC-3): 2000 nM
CC50 (PC-3): > 100 µM
GI50 (SK-MEL-2): 2480 nM
CC50 (SK-MEL-2): 38.4 µM
activity against T47D in two-dose screen ([1]; 10 µM and 50 µM): weak activity
GI50 (OVCAR-8): 1210 nM
CC50 (OVCAR-8): 38.6 µM
GI50 (NCI-H226): 2520 nM
CC50 (NCI-H226): 51.2 µM
GI50 (RPMI-8226): 1430 nM
CC50 (RPMI-8226): > 100 µM
GI50 (UACC-257): 8.22 µM
CC50 (UACC-257): 47.8 µM
GI50 (HOP-92): 1870 nM
CC50 (HOP-92): 50.3 µM
GI50 (HCC-2998): 1550 nM
CC50 (HCC-2998): 32.7 µM
GI50 (OVCAR-3): 1090 nM
CC50 (OVCAR-3): 31.9 µM
GI50 (HL-60 (TB)): 598 nM
CC50 (HL-60 (TB)): > 100 µM
GI50 (MDA-MB-231/ATCC): 1620 nM
CC50 (MDA-MB-231/ATCC): 26.4 µM
GI50 (CAKI-1): 776 nM
CC50 (CAKI-1): 44.1 µM
GI50 (DU-145): 1.95 µM
CC50 (DU-145): 34.7 µM
GI50 (BT-549): 4.53 µM
CC50 (BT-549): 52.3 µM

Cc1cc(C)c(/C=N/NC(=O)c2[nH]c3ccc(Br)cc3c2-c2ccccc2)[nH]1 [Derivative 3c, (E)-5-Bromo-N′-((3,5-dimethyl-1H-pyrrol-2-yl)methylene)-3-phenyl-1H-2-carbohydrazide]
GI50 (HS 578T): 2310 nM
CC50 (HS 578T): > 100 µM
CC50 (MDA-MB-435): 34 µM
GI50 (MDA-MB-435): 2840 nM
GI50 (HCT-116): 4020 nM
CC50 (HCT-116): > 100 µM
GI50 (IGROV1): 2470 nM
GI50 (MDA-MB-468): 2000 nM
CC50 (MDA-MB-468): 26.4 µM
GI50 (LOX IMVI): 2430 nM
CC50 (LOX IMVI): 30.2 µM
GI50 (M14): 4.45 µM
CC50 (M14): 49.9 µM
GI50 (NCI-H460): 2830 nM
CC50 (NCI-H460): 37.9 µM
GI50 (HT29): 3530 nM
CC50 (HT29): 46.6 µM
GI50 (MOLT-4): 2290 nM
CC50 (MOLT-4): > 100 µM
GI50 (UO-31): 1770 nM
CC50 (UO-31): 33.8 µM
GI50 (SF-295): 2760 nM
CC50 (SF-295): 29.5 µM
GI50 (OVCAR-5): 3630 nM
CC50 (OVCAR-5): 37.6 µM
GI50 (HCT-15): 2910 nM
CC50 (HCT-15): 37.2 µM
GI50 (NCI-H23): 2590 nM
CC50 (NCI-H23): 35.2 µM
GI50 (HOP-62): 2970 nM
CC50 (HOP-62): 69.3 µM
GI50 (PC-3): 2060 nM
CC50 (PC-3): 47.6 µM
GI50 (SK-MEL-2): 3370 nM
CC50 (SK-MEL-2): 41.7 µM
IC50 ([1]; Homo sapiens, T47D, MTT, 48 hours): 11.6 ± 0.3 µM
GI50 (OVCAR-8): 3100 nM
CC50 (OVCAR-8): 45 µM
GI50 (NCI-H226): 2580 nM
CC50 (NCI-H226): 34.4 µM
GI50 (RPMI-8226): 2430 nM
CC50 (RPMI-8226): > 100 µM
GI50 (UACC-257): 4.35 µM
CC50 (UACC-257): 49.2 µM
GI50 (HOP-92): 2610 nM
CC50 (HOP-92): 43.5 µM
GI50 (HCC-2998): 3550 nM
CC50 (HCC-2998): 37.2 µM
GI50 (OVCAR-3): 2530 nM
CC50 (OVCAR-3): 36.4 µM
GI50 (HL-60 (TB)): 2400 nM
CC50 (HL-60 (TB)): > 100 µM
GI50 (MDA-MB-231/ATCC): 2780 nM
CC50 (MDA-MB-231/ATCC): 32.8 µM
GI50 (CAKI-1): 3170 nM
CC50 (CAKI-1): 39.1 µM
GI50 (DU-145): 4.07 µM
CC50 (DU-145): 38.9 µM
GI50 (BT-549): 5.04 µM
CC50 (BT-549): 47.9 µM
